5 compounds from ChEMBL document CHEMBL1667770, “Stereoselective first total synthesis, confirmation of the absolute configuration and bioevaluation of botryolide-E” (2011) can be followed below.

In brackets after ≈: the same amount, converted by molar mass.

Assay type in all cases: functional
Assay [1] deals with Pseudomonas aeruginosa. Nature of the assay: Antimicrobial activity against Pseudomonas aeruginosa MTCC 741 after 24 hrs by broth dilution method. The settings on record: MTCC 741, 24 h.
Assay [2] concerns Klebsiella pneumoniae. The experiment in a line: Antimicrobial activity against Klebsiella pneumoniae MTCC 39 after 24 hrs by broth dilution method. As to conditions: MTCC 39, 24 h.
Assay [3] relates to Aspergillus niger. Nature of the assay: Antimicrobial activity against Aspergillus niger MTCC 1344 at 100 ug/ml after 24 to 96 hrs by agar cup method. As to conditions: read-out: IZ.
For assay [4], the system named is Rhizopus arrhizus. The experiment in a line: Antimicrobial activity against Rhizopus oryzae MTCC 262 at 100 ug/ml after 24 to 96 hrs by agar cup method. As to conditions: read-out: IZ.
For assay [5], the system named is Staphylococcus epidermidis. The experiment in a line: Antimicrobial activity against Staphylococcus epidermidis MTCC 437 after 24 hrs by broth dilution method. As to conditions: MTCC 437, 24 h.
Assay [6] relates to Staphylococcus aureus. Nature of the assay: Antimicrobial activity against Staphylococcus aureus MTCC 96 after 24 hrs by broth dilution method. As to conditions: MTCC 96, 24 h.
The subject of assay [7] is Escherichia coli. Nature of the assay: Antimicrobial activity against Escherichia coli MTCC 443 after 24 hrs by broth dilution method. The settings on record: MTCC 443, 24 h.
Assay [8] concerns Candida albicans. The experiment in a line: Antimicrobial activity against Candida albicans MTCC 227 at 100 ug/ml after 24 to 96 hrs by agar cup method. As to conditions: read-out: IZ.
Assay [9] has as its system Bacillus subtilis. Nature of the assay: Antimicrobial activity against Bacillus subtilis MTCC 441 after 24 hrs by broth dilution method. The settings on record: MTCC 441, 24 h.
In assay [10] the test system is Saccharomyces cerevisiae. The experiment in a line: Antimicrobial activity against Saccharomyces cerevisiae MTCC 171 at 100 ug/ml after 24 to 96 hrs by agar cup method. As to conditions: read-out: IZ.
Assay [11] concerns Candida albicans. Nature of the assay: Antimicrobial activity against Candida albicans MTCC 227 at 30 ug/ml after 24 to 96 hrs by agar cup method. The settings on record: read-out: IZ.
The test system of assay [12] is Rhizopus arrhizus. Nature of the assay: Antimicrobial activity against Rhizopus oryzae MTCC 262 at 30 ug/ml after 24 to 96 hrs by agar cup method. As to conditions: read-out: IZ.
Assay [13] relates to Aspergillus niger. Nature of the assay: Antimicrobial activity against Aspergillus niger MTCC 1344 at 30 ug/ml after 24 to 96 hrs by agar cup method. The settings on record: read-out: IZ.
The subject of assay [14] is Saccharomyces cerevisiae. The experiment in a line: Antimicrobial activity against Saccharomyces cerevisiae MTCC 171 at 30 ug/ml after 24 to 96 hrs by agar cup method. As to conditions: read-out: IZ.

Take `CC(=O)O[C@H](C)C[C@H](O)[C@@H]1C=CC(=O)O1` [BOTRYOLIDE-E]: the MIC in [1] came to 50 µg/mL (≈ 233 µM); in assay [2] it was 50 µg/mL (≈ 233 µM); in assay [5], 50 µg/mL (≈ 233 µM); in assay [6] it was 6.25 µg/mL (≈ 29.2 µM); in assay [7] it was 12.5 µg/mL (≈ 58.4 µM); in [9], 25 µg/mL (≈ 117 µM). Moreover, the zone of inhibition at 100 µg/mL amounted to 10 mm in assay [3], 14 mm in assay [4], 12 mm in assay [8] and 8 mm in assay [10].

Take `Clc1ccccc1C(c1ccccc1)(c1ccccc1)n1ccnc1` [CLOTRIMAZOLE]: the zone of inhibition at 30 µg/mL is 22 mm in assay [11], 21 mm in [12], 18 mm in [13] and 23 mm in [14].

For `O=C1CN(/N=C/c2ccc([N+](=O)[O-])o2)C(=O)N1` [NITROFURANTOIN], the MIC in assay [1] came to 100 µg/mL (≈ 420 µM); in [2], 50 µg/mL (≈ 210 µM); in assay [5] it was 50 µg/mL (≈ 210 µM); in assay [6], 50 µg/mL (≈ 210 µM); in assay [7], 25 µg/mL (≈ 105 µM); in [9], 100 µg/mL (≈ 420 µM).

On to `CC1(C)S[C@@H]2[C@H](NC(=O)Cc3ccccc3)C(=O)N2[C@H]1C(=O)O` [PENICILLIN G], for which the MIC in assay [5], in assay [6] and in assay [9] was 1.56 µg/mL (≈ 4.67 µM) each time.

For the compound `CN[C@@H]1[C@H](O[C@H]2[C@H](O[C@H]3[C@H](O)[C@@H](O)[C@H](N=C(N)N)[C@@H](O)[C@@H]3N=C(N)N)O[C@@H](C)[C@]2(O)C=O)O[C@@H](CO)[C@H](O)[C@H]1O` [STREPTOMYCIN], the minimal inhibitory concentration (MIC) in assay [1], in assay [2] and in [7] was 1.56 µg/mL (≈ 2.69 µM) each time.
